Assay results published in PubChem BioAssay AID256 (DTP/NCI, 2004).
Values joined by “and” are separate entries in the source; they are usually repeats but may differ in a detail not shown here. Equal entries are not always repeated. Toxic doses and inconclusive results are not listed. How the source made its calls: active means survival T/C of 150% or more; inactive means T/C below 125% in these data.

Test system: CD2F1 mice, L1210 leukemia ip, survival T/C
Experiment: NCI In Vivo Anticancer Drug Screen. Data for tumor model L1210 Leukemia (intraperitoneal) in CD2F1 (CDF1) mice
Details: endpoint: mean survival time, higher = longer survival
Summary of the method: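 Ratio T/C, where T is the treated-group value and C the vehicle-dosed control value, from mice implanted with a transplantable tumor.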

[1] = dose: 100.0 mg/kg/injection, schedule: Q04DX003 (ip), vehicle: Klucel (hydroxypropylcellulose) (HPC)
[2] = dose: 200.0 mg/kg/injection, schedule: Q04DX003 (ip), vehicle: Klucel (hydroxypropylcellulose) (HPC)
[3] = dose: 6.25 mg/kg/injection, schedule: Q01DX009 (ip), vehicle: Klucel (hydroxypropylcellulose) (HPC)
[4] = dose: 12.5 mg/kg/injection, schedule: Q01DX009 (ip), vehicle: Klucel (hydroxypropylcellulose) (HPC)
[5] = dose: 12.5 mg/kg/injection, schedule: Q01DX009 (ip), vehicle: saline with Tween-80
[6] = dose: 25.0 mg/kg/injection, schedule: Q01DX009 (ip), vehicle: Klucel (hydroxypropylcellulose) (HPC)
[7] = dose: 25.0 mg/kg/injection, schedule: Q01DX009 (ip), vehicle: saline with Tween-80
[8] = dose: 50.0 mg/kg/injection, schedule: Q01DX009 (ip), vehicle: saline with Tween-80
[9] = dose: 100.0 mg/kg/injection, schedule: Q01DX009 (ip), vehicle: saline with Tween-80
[10] = dose: 100.0 mg/kg/injection, schedule: Q04DX003 (ip), vehicle: saline with Tween-80
[11] = dose: 200.0 mg/kg/injection, schedule: Q01DX009 (ip), vehicle: saline with Tween-80
[12] = dose: 200.0 mg/kg/injection, schedule: Q04DX003 (ip), vehicle: saline with Tween-80
[13] = dose: 400.0 mg/kg/injection, schedule: Q01DX009 (ip), vehicle: saline with Tween-80
[14] = dose: 400.0 mg/kg/injection, schedule: Q04DX003 (ip), vehicle: saline with Tween-80
[15] = dose: 100.0 mg/kg/injection, schedule: Q01DX001 (ip), vehicle: saline with Tween-80
[16] = dose: 200.0 mg/kg/injection, schedule: Q01DX001 (ip), vehicle: saline with Tween-80
[17] = dose: 400.0 mg/kg/injection, schedule: Q01DX001 (ip), vehicle: saline with Tween-80
[18] = dose: 75.0 mg/kg/injection, schedule: Q01DX001 (ip), vehicle: other
[19] = dose: 150.0 mg/kg/injection, schedule: Q01DX001 (ip), vehicle: other

Measured: T/C

CC(=O)Nc1ccc(C)cc1C
inactive: [1] 94 % of control | [2] 103 % of control | dose: 400.0 mg/kg/injection, schedule: Q04DX003 (ip), vehicle: Klucel (hydroxypropylcellulose) (HPC) 97 % of control

CCN=C(N)/N=C(\N)C(Cl)(Cl)Cl
inactive: dose: 100.0 mg/kg/injection, schedule: Q01DX001 (ip), vehicle: saline 101 % of control | dose: 200.0 mg/kg/injection, schedule: Q01DX001 (ip), vehicle: saline 96 % of control | dose: 400.0 mg/kg/injection, schedule: Q01DX001 (ip), vehicle: saline 90 % of control

C(C#CCN1CCOCC1)#CCN1CCOCC1
inactive: [3] 96 % of control | [4] 91 % of control | [5] 95 % of control and 101 % of control | [6] 100 % of control | [7] 95 % of control and 98 % of control | dose: 50.0 mg/kg/injection, schedule: Q01DX009 (ip), vehicle: Klucel (hydroxypropylcellulose) (HPC) 105 % of control | [8] 93 % of control and 95 % of control | dose: 100.0 mg/kg/injection, schedule: Q01DX009 (ip), vehicle: Klucel (hydroxypropylcellulose) (HPC) 100 % of control | [9] 88 % of control and 90 % of control and 96 % of control | [10] 102 % of control | dose: 200.0 mg/kg/injection, schedule: Q01DX009 (ip), vehicle: Klucel (hydroxypropylcellulose) (HPC) 91 % of control | [11] 95 % of control (2×) and 96 % of control | [12] 96 % of control | dose: 400.0 mg/kg/injection, schedule: Q01DX009 (ip), vehicle: Klucel (hydroxypropylcellulose) (HPC) 97 % of control | [13] 95 % of control and 100 % of control and 101 % of control | [14] 102 % of control

O=C(OCC1CC=CC1)C1CC=CC1
inactive: [5] 104 % of control | [7] 95 % of control | [8] 98 % of control

CCOC(=O)c1cnc(NN)nc1Nc1cc(Cl)cc(Cl)c1
inactive: dose: 6.25 mg/kg/injection, schedule: Q01DX009 (ip), vehicle: saline with Tween-80 94 % of control | [5] 86 % of control | dose: 12.5 mg/kg/injection, schedule: Q04DX003 (ip), vehicle: saline with Tween-80 89 % of control | [7] 95 % of control | dose: 25.0 mg/kg/injection, schedule: Q04DX003 (ip), vehicle: saline with Tween-80 89 % of control

N/N=C\C(=N/N)C(O)C(O)C(O)CO (centres undefined)
inactive: [15] 87 % of control

CC(=O)N1CCCCC1C/C(C)=N/O (centres undefined)
inactive: [10] 105 % of control | [12] 95 % of control | [14] 109 % of control

COC1C(O)C(C)OC(OC2C(Oc3cccc4c(O)c5c(=O)oc6ccc(C)c7c(=O)oc(c34)c5c67)OC(C)C(O)C2O)C1O (centres undefined)
inactive: dose: 5.0 mg/kg/injection, schedule: Q01DX009 (ip), vehicle: saline with Tween-80 116 % of control | dose: 10.0 mg/kg/injection, schedule: Q01DX009 (ip), vehicle: saline with Tween-80 115 % of control | dose: 20.0 mg/kg/injection, schedule: Q01DX009 (ip), vehicle: saline with Tween-80 116 % of control | dose: 80.0 mg/kg/injection, schedule: Q01DX009 (ip), vehicle: saline with Tween-80 123 % of control

CC(=O)Nc1cc2ccccc2c2ccc3ccccc3c12
inactive: [15] 89 % of control | [9] 96 % of control | [16] 93 % of control | [11] 95 % of control | [17] 102 % of control | [13] 96 % of control

Nc1ccc(-c2nc(-c3ccccc3)c(-c3ccccc3)[nH]2)cc1
inactive: dose: 12.5 mg/kg/injection, schedule: Q01DX001 (ip), vehicle: saline with Tween-80 94 % of control | dose: 25.0 mg/kg/injection, schedule: Q01DX001 (ip), vehicle: saline with Tween-80 102 % of control | dose: 50.0 mg/kg/injection, schedule: Q01DX001 (ip), vehicle: saline with Tween-80 102 % of control | [17] 87 % of control

COc1ccc2c(c1C)CN1CCc3cc4c(cc3C1=C2)OCO4
inactive: [18] 94 % of control | [19] 88 % of control | dose: 300.0 mg/kg/injection, schedule: Q01DX001 (ip), vehicle: other 88 % of control

CC1(C(F)(F)F)CC(=O)NN1 (centres undefined)
inactive: dose: 12.5 mg/kg/injection, schedule: Q01DX009 (ip), vehicle: saline 95 % of control | dose: 25.0 mg/kg/injection, schedule: Q01DX009 (ip), vehicle: saline 97 % of control | dose: 50.0 mg/kg/injection, schedule: Q01DX009 (ip), vehicle: saline 97 % of control | [10] 97 % of control

Cc1cc(C)cc(C(C)(C)C)c1
inactive: [9] 96 % of control | [11] 102 % of control

O/N=C/c1cccc(CC(O)(C(F)(F)F)C(F)(F)F)n1
inactive: [10] 97 % of control | [12] 95 % of control | [14] 95 % of control

NC(=O)NC1CCCC1
inactive: [9] 107 % of control | [11] 107 % of control | [13] 107 % of control

Nc1ccccc1C(=O)O
inactive: [15] 97 % of control | [16] 100 % of control | [17] 100 % of control

CN(C)N=Nc1c(Cl)cccc1Cl
inactive: dose: 9.38 mg/kg/injection, schedule: Q01DX009 (ip), vehicle: Klucel (hydroxypropylcellulose) (HPC) 101 % of control | dose: 18.75 mg/kg/injection, schedule: Q01DX009 (ip), vehicle: Klucel (hydroxypropylcellulose) (HPC) 95 % of control and 103 % of control | dose: 37.5 mg/kg/injection, schedule: Q01DX009 (ip), vehicle: Klucel (hydroxypropylcellulose) (HPC) 97 % of control and 110 % of control | dose: 300.0 mg/kg/injection, schedule: Q01DX009 (ip), vehicle: Klucel (hydroxypropylcellulose) (HPC) 89 % of control

CC(=O)N(C)N=Nc1ccc(Cl)cc1
inactive: dose: 25.0 mg/kg/injection, schedule: Q04DX003 (ip), vehicle: Klucel (hydroxypropylcellulose) (HPC) 109 % of control | dose: 50.0 mg/kg/injection, schedule: Q04DX003 (ip), vehicle: Klucel (hydroxypropylcellulose) (HPC) 105 % of control | [1] 103 % of control | [2] 100 % of control

c1ccc(-c2c3ccccc3c(-c3ccccc3)c3c2ccc2ccccc23)cc1
inactive: [3] 89 % of control | [4] 89 % of control | [6] 91 % of control

CCOc1ccc2c(O)csc2c1
inactive: [10] 90 % of control | [12] 91 % of control | [14] 91 % of control

CCOC(=O)C(=CN1CCCCCC1)C(=O)OCC
inactive: [9] 94 % of control | [11] 89 % of control | [13] 94 % of control

CCOc1cccc(Cc2cn(Cc3ccccc3)c(=O)[nH]c2=O)c1
inactive: [10] 100 % of control | [12] 106 % of control | [14] 96 % of control

FC(F)(F)c1nn[nH]n1
inactive: dose: 100.0 mg/kg/injection, schedule: Q01DX009 (ip), vehicle: saline 100 % of control | dose: 200.0 mg/kg/injection, schedule: Q01DX009 (ip), vehicle: saline 104 % of control | dose: 400.0 mg/kg/injection, schedule: Q01DX009 (ip), vehicle: saline 98 % of control

Cc1cccc[n+]1CCC(N)=O
inactive: dose: 6.25 mg/kg/injection, schedule: Q04DX003 (ip), vehicle: saline 96 % of control | dose: 12.5 mg/kg/injection, schedule: Q04DX003 (ip), vehicle: saline 88 % of control | dose: 25.0 mg/kg/injection, schedule: Q04DX003 (ip), vehicle: saline 91 % of control

O=NC1C(=O)C2CC1CC2C(=O)OC(=O)C1CC2CC1C(=O)C2N=O (centres undefined)
inactive: [18] 108 % of control | [19] 108 % of control
